Measured values reported in patent US20130101624A1, “LINEAR IGE PEPTIDE EPITOPES OF HAZELNUT ALLERGEN COR A 1 AND CELERY ANTIGEN API 1” (CHARITE UNIVERSITATSMEDIZIN BERLIN, priority 2010, published 2013).

Experiments:
[1] = system: human IgE antibodies (sera of hazelnut allergic patients); assay: Human IgE antibody binding to Cor a 1.0301 derived 12-meric peptide array (SPOT pepscan), probed with sera; conditions: sera of 13 hazelnut allergic patients
Excerpt: An array of overlapping peptides representing the entire sequence of major hazelnut allergen Cor a 1.0301 was synthesized and probed with the participants' sera. Sera of hazelnut allergic patients show binding to different distinct regions of Cor a 1. In particular, the region of dodecapeptides 17 to 22 is the most important region for IgE-binding.
(§1) Subsequently, these sequences were synthesized as peptide arrays on cellulose membranes according to SPOT technology. A highly specific secondary anti-human IgE antibody with minimum cross-reactivity towards cellulose membrane-bound peptides was employed.
Synthetic arrays were probed with sera randomly chosen from a well described cohort of subjects, including 21 patients with a defined allergic reaction to celery, 13 patients with a defined allergic reaction to hazelnut and 17 healthy individuals. Captured human IgE antibodies were detected by a HRP-labeled secondary antibody and binding was visualized by chemiluminescence. […]
Human IgE antibody binding studies: The spotted peptide arrays were prewashed with ethanol (1×10 min), washed with Tris-buffered saline (TBS), pH 8.0 (3×10 min), and blocked for 2 h at room temperature with blocking buffer. […] The signal intensities were recorded as Biomedical Light Units (BLU) by a Lumilmager™ (Boehringer Mannheim GmbH, Mannheim, Germany) using the LumiAnalyst software. […]

[2] = system: human IgE antibodies (sera of celery allergic patients and healthy subjects); assay: Human IgE antibody binding to Api g 1.0101 derived 12-meric peptides arrayed on cellulose membrane (SPOT pepscan), probed with sera; conditions: for share of celery allergic individuals whose serum IgE responded to the peptide / recognition by sera of celery allergic patients: sera of 21 celery allergic patients; for share of celery allergic individuals whose serum IgE responded to the peptide / IgE binding in sera of healthy controls / recognition by sera of celery allergic patients: diluted 1:5; for share of celery allergic individuals whose serum IgE responded to the peptide: spot positive if SInorm above membrane cut off; for number of celery allergic patients whose sera IgE antibodies bind the sequence: of 21 celery allergic patients; for IgE binding in sera of healthy controls: sera of 17 healthy subjects
Excerpt: as §1
Synthetic arrays were probed with sera randomly chosen from a well described cohort of subjects, including 21 patients with a defined allergic reaction to celery, 13 patients with a defined allergic reaction to hazelnut and 17 healthy individuals. Captured human IgE antibodies were detected by a HRP-labeled secondary antibody and binding was visualized by chemiluminescence.
The optimal conditions for screening the sera of 21 celery allergic patients and 17 healthy controls were as follows: (i) replica of a 12-meric pepscan with a shift of three amino acids covering the Api g 1.0101 sequence (or cor a 1 sequence, respectively) synthesized on high-loaded N-CAPE membranes (640 nmol/cm2-760 nmol/cm2); (ii) prior to treatment with sera, membranes were blocked with the Sigma-Genosys blocking buffer for 2 h at room temperature; (iii) arrays were probed for 16 h at 4° C. with diluted sera (1:5) for IgE antibody binding; (iv) the captured human IgE antibodies were detected with the HRP-labeled anti-human IgE antibody (A 9667, Sigma-Aldrich) and visualized by chemiluminescence; (v) spot signal intensities were measured on a Lumilmager and processed with the LumiAnalyst software. To check the reproducibility of our screening procedure, three different peptide arrays were incubated and evaluated for each person (allergic and healthy).
Sera binding patterns could be reproduced in repeated incubation experiments. Although inter-membrane absolute spot signal intensities differed, the relative differences between spot signal intensities were nearly the same. This enabled comparison of spot signal intensities from different membranes by applying an additional normalization procedure. We defined an IgE antibody binding spot as positive if its normalized signal intensity (SInorm) was higher than the calculated cut off value of the appropriate membrane.
Peptide array synthesis: Overlapping peptide sequences (7-, 12- and 24-mer) with a shift of three amino acids) of Api g 1.0101 or cor a 1 were prepared by a MultiPep SPOT-robot (INTAVIS Bioanalytical Instruments AG, Köln, Germany). Array design was performed with the aid of the in-house software LISA 1.83. Amino acids were used as Fmoc-protected Opfp-esters with the following side protection groups: tert-butyl ester (OtBu) for E and D, tert-butyl ether (tBu) for S, T and Y, tert-butoxycarbonyl (Boc) for K and W, triphenylmethyl (Trt) for C, N, Q and H and 2,2,4,6,7-pentamethyldihydrobenzofuran-5-sulfonyl (Pbf) for R. For standard SPOT-synthesis, double couplings of 0.3 M solutions of amino acids in 1-methyl-2-pyrollidone (NMP; Fluka, Steinheim, Germany) were applied. After the final Fmoc-deprotection step and washing procedure, cleavage of the side chain protecting groups was performed according to our standard two-step deprotection protocol.
Human IgE antibody binding studies: The spotted peptide arrays were prewashed with ethanol (1×10 min), washed with Tris-buffered saline (TBS), pH 8.0 (3×10 min), and blocked for 2 h at room temperature with blocking buffer. The membranes were incubated with the patients' sera (dilution 1:5) in blocking buffer overnight at 4° C., washed with TBS, followed by a second incubation with anti-human IgE antibody (ε-chain specific) conjugated with horse radish peroxidase (HRP) (A 9667, Sigma-Aldrich, St. Louis, USA) in blocking buffer for 2 h at room temperature. To remove excess antibody the membrane was washed with TBS (3×10 min). Detection was performed with Uptilight HRP blot chemiluminescent substrate (Uptima, Interchim, Montiugon Cedex, France) with an exposure time of 2 min. […]

Row | Sequence | share of celery allergic individuals whose serum IgE responded to the peptide [2] [%] | number of celery allergic patients whose sera IgE antibodies bind the sequence [2] | IgE binding in sera of healthy controls [2] | further results
1 | AGKEKASGLFKA (listed as Corylus avellana) [COR A 1. PEP47] |  |  |  | recognition by sera of hazelnut allergic patients [1]: recognized by all sera of hazelnut allergic patients
2 | GDGGPGTLKIIT (listed as Apium graveolens) [compound 16] | 38 |  |  | 
3 | GGPITTMTLRID (listed as Apium graveolens) [compound 21] | 29 |  |  | 
4 | IFQGFVIDVDTV (listed as Apium graveolens) [peptide 7] | 38 | at least six | not reacting with any sera IgE antibody from healthy subjects | 
5 | IITLPDGGPITT (listed as Apium graveolens) [compound 19] | 29 |  |  | 
6 | NHVVLVPTADGG [peptide 34] | 29 | at least six | not reacting with any sera IgE antibody from healthy subjects | 
7 | PHGGSILKSISK (listed as Corylus avellana) [COR A 1. PEP37] |  |  |  | recognition by sera of hazelnut allergic patients [1]: recognized by all sera of hazelnut allergic patients
8 | PTADGGSICKTT (listed as Apium graveolens) [compound 36] | 43 |  |  | 
9 | VLVPTADGGSIC (listed as Apium graveolens) [peptide 35] | 100 | at least six | not reacting with any sera IgE antibody from healthy subjects | spot signal intensity (BLU), ranking ([2]; average spot signal intensity, chemiluminescence, FIG. 3): highest measured spot signal intensity; IgE binding in sera of healthy controls ([2]; listed as VLVPTADGGSIC): no binding; recognition by sera of celery allergic patients [2]: recognized by the sera from all the celery allergic patients; recognition by sera of celery allergic patients ([2]; listed as VLVPTADGGSIC): recognized by all sera of celery allergic patients
